Results on 7 compounds are retold here after PMC7927808 (Antimicrobial Agents and Chemotherapy, 2020).

For assay [1], the system named is S. aureus N315 pRB474-lugIEFGH. Briefly: MIC determination, broth microdilution in BM. The conditions noted are these: for Effect of constitutive LugIEFGH expression on S. aureus susceptibility (in words): S. aureus pRB474-lugIEFGH compared with S. aureus pRB474 (Fig. 4); for MIC S. aureus pRB474-lugIEFGH: Table S2, mean MIC in BM-medium, 37°C, 24 h, 75% growth reduction, at least three independent experiments; for Ratio of MICs, S. aureus pRB474-lugIEFGH versus S. aureus pRB474: Table S2 / Fig. 4b, BM-medium. Format: cell-based, Staphylococcus aureus. Background: Dilution methods test growth across graded concentrations, often in twofold steps.
Procedure: Further strains used for MIC determination were S. aureus N315 with plasmids pRB474, pRB474-lugI, pRB474-lugEF, pRB474-lugIEF, pRB474-lugGH, pRB474-lugIGH, pRB474-lugEFGH, and pRB474-lugIEFGH.
If necessary, antibiotic was used at a concentration of 10 μg ml^−1 for chloramphenicol.
Strains used for MIC determinations were grown overnight in BM, with chloramphenicol for plasmid-containing strains, under continuous shaking at 37°C. Each strain was adjusted to OD600 of 0.0625 in BM. The antimicrobial molecule stock solutions were serially diluted in BM in 96-well microtiter plates. Each well with 100 μl medium, and chloramphenicol, if required, was inoculated with 2 μl of the OD600 of 0.0625 bacterial stock solution. The plates were incubated at 37°C for 24 h under continuous shaking (160 rpm). The OD600 of each well was measured with a microplate reader, and the concentration leading to a 75% growth reduction was calculated and defined as the MIC value.

A further assay relates to S. aureus N315 pRB474. Put plainly: MIC determination, broth microdilution in BM. The class given is cell-based, Staphylococcus aureus. As to conditions: Table S2, mean MIC in BM-medium; empty vector strain; 37°C, 24 h, 75% growth reduction; at least three independent experiments.

As to 2-Ala-lugdunin, in assay [1], the “Effect of constitutive LugIEFGH expression on S. aureus susceptibility (in words)” value (“Effect” for short) was “no resistance against the 2-Ala congener was conferred”; the MIC S. aureus pRB474-lugIEFGH was 39.9 µg/mL; the “Ratio of MICs, S. aureus pRB474-lugIEFGH versus S. aureus pRB474” value (“Ratio of MICs” for short) came out at 0.99. Also, in the assay with S. aureus N315 pRB474, the MIC S. aureus pRB474 came to 40.2 µg/mL.
In the case of 6-Trp-lugdunin, in assay [1], the “Effect” value was “Similar, though even less pronounced”; the MIC S. aureus pRB474-lugIEFGH was found to be 31.1 µg/mL; the “Ratio of MICs” value turned out to be 1.89. In the assay with S. aureus N315 pRB474, the MIC S. aureus pRB474 turned out to be 16.4 µg/mL.
On the same counts, the results for `N#CC(C#N)=NNc1cccc(Cl)c1` [CCCP, carbonyl cyanide m-chlorophenylhydrazone] are “did not affect the susceptibility”, 0.64 µg/mL, 1.02 and 0.63 µg/mL.
For `CO[C@@H]1C[C@@H](C[C@H]2CC[C@H](C)[C@H]([C@@H](C)C(=O)O)O2)O[C@]2(O[C@](C)([C@H]3CC[C@@](C)([C@@H]4O[C@@H]([C@H]5O[C@@](O)(CO)[C@H](C)C[C@@H]5C)C[C@@H]4C)O3)C[C@H]2C)[C@@H]1C` [nigericin], in assay [1], the “Effect” value was “did not affect the susceptibility”; the MIC S. aureus pRB474-lugIEFGH is 0.25 µg/mL; the “Ratio of MICs” value worked out at 1.00. The MIC S. aureus pRB474 against S. aureus N315 pRB474 was 0.25 µg/mL.
daptomycin: in assay [1], the “Effect” value is “did not affect the susceptibility”; the MIC S. aureus pRB474-lugIEFGH is 2.17 µg/mL; the “Ratio of MICs” value amounted to 1. Further, the MIC S. aureus pRB474 in the assay on S. aureus N315 pRB474 worked out at 2.17 µg/mL.
With enantio-lugdunin, in assay [1], the “Effect” value is listed as “some degree of resistance”; the MIC S. aureus pRB474-lugIEFGH worked out at 69.8 µg/mL; the “Ratio of MICs” value is recorded as 2.23. Moreover, the MIC S. aureus pRB474 with S. aureus N315 pRB474 amounted to 31.3 µg/mL.
On to gramicidin S, for which, in assay [1], the “Effect” value was “did not affect the susceptibility”; the MIC S. aureus pRB474-lugIEFGH amounted to 2.74 µg/mL; the “Ratio of MICs” value is recorded as 1.00. Further, the MIC S. aureus pRB474 in the assay with S. aureus N315 pRB474 came out at 2.75 µg/mL.
